Source: US10604481B2, “(Thio, oxo and seleno) semicarbazone complexes with zinc and their use for treating cancer” (RUTGERS, THE STATE UNIVERSITY OF NEW JERSEY, priority 2015, dated 2020)

Experiments:
[1] = Liposome import assay (RhodZin-3 in DOPC liposomes); details: for transport of Zn2+ into liposomes (rate of RZ-3 fluorescence increase): external [Zn2+]free 10 μM
Method: Zn^2+ alone was unable to permeate the liposomal membrane as indicated by the lack of RZ-3 fluorescence increase.
It can function as an ionophore in conditions of the liposome experiments where external [Zn^2+]free was 10 μM. However, in complete media containing 10% fetal bovine serum (FBS), Zn^2+-binding proteins from the serum (e.g. albumin) necessarily compete for Zn^2+ with any putative MC, making the effective [Zn^2+]free much lower than [Zn^2+]total.
DOPC-liposomes were prepared by film rehydration and extrusion followed by gel filtration and diluted to an OD600=0.06 in buffer. The size distribution of the liposomes was determined by dynamic light scattering (DLS) using a Malvern Zetasizer Nano ZS. Fluorescence measurements were taken on a Horiba Fluoromax-4 spectrofluorimeter in a 5×5 mm quartz cuvette with λex/λem=550/572 nm for RZ-3 and 490/515 nm for calcein. Initial Zn^2+ import/export was quantified by fitting the first 10-30 s of data after each treatment to a line and converted to units of flux using the following Eqn 1:
[formula] where Ji is the initial flux, ΔF/Δt is the slope of the fit line, Fmax is RZ-3 fluorescence in the presence of saturating Zn^2+ and 1% TritonX-100, Fmin is RZ-3 fluorescence in the presence of excess EDTA and 1% TritonX-100, [RZ3] is the concentration of encapsulated RZ-3, and SA/Vol is the surface area to volume ratio calculated assuming hollow spheres of the mean diameter determined by DLS. Intracellular [Zn^2+]free Imaging

[2] = tested on: HEK293 (non-cancer, p53-WT) cells; experiment: Intracellular [Zn2+]free imaging with FluoZin-3-AM, HEK293; type: cell-based; details: for increase of intracellular [Zn2+]free (FZ3 fluorescence): HEK293, complete media
Method: To minimize the potential for Zn^2+ contamination and contributions from poorly defined elements in complete media (e.g. FBS), cells were treated and imaged in Ca^2+ and Mg^2+-free Earle's Balanced Salt Solution supplemented with 10 mM HEPES pH 7.4 (EBSS/H (−)Ca/Mg). Excess ZnCl2 with the Zn^2+ ionophore pyrithione (PYR) was used as a positive control. Excess membrane-permeable Zn^2+ chelator N,N,N′,N′-tetrakis(2-pyridylmethyl)ethane-1,2-diamine (TPEN) was used as a negative control.
To normalize for differential dye loading, cells were then sequentially treated with excess PYR/ZnCl2, imaged, treated with TPEN, and imaged again. PYR/ZnCl2 and TPEN served to saturate and apoize the intracellular FZ3, respectively.
TOV112D or HEK293 cells (40,000 cells/well) were plated on either 8-well BD Falcon chambered culture slides (Corning Life Sciences) or 8-chambered #1.5 Nunc Lab-Tek II chambered coverglasses (Thermo Scientific) treated with poly-L-lysine. After 48 h, cells were washed 2×5 m in serum-free media and incubated with 1 μM FZ3-AM for 40 m at 37° C. Cells were then washed 2×5 m in either EBSS/H (−)Ca/Mg or phenol-red free DMEM+10% FBS containing the indicated treatments for 20 m before imaging. For nuclear colocalization, 1 μg/mL Hoechst 33342 was also included. Cells were imaged using a Zeiss LSM510 META NLO confocal microscope equipped with 37° C. environmental control chamber. FZ3 and Hoechst 33342 were excited at 488 nm (argon laser) and 790 nm (Chameleon Ti:sapphire laser), respectively. To determine the kinetics of fluorescence change, each background-subtracted image in the time-lapse series was integrated in ImageJ and normalized to the integrated fluorescence of the first frame after treatment. For quantification of intracellular [Zn^2+]free, each cell was analyzed in the treated, 50 μM PYR/ZnCl2 (1:1), and 100 μM TPEN images by taking the mean fluorescence of an ROI inside the cell subtracted by an ROI immediately outside the cell measured in ImageJ. The [Zn^2+]free for each cell was then calculated by Eqn 2:
[formula] […] To minimize the effects of outliers the lowest and highest 5% of cells in each series were rejected, and the remaining values averaged to give the value from that experiment. The number of cells analyzed in each trial ranged from 54-163. For nuclear colocalization, treated, PYR/ZnCl2, and TPEN treated images costained with Hoechst 33342 were aligned and each pixel subjected to Eqn. 2 in MATLAB (MathWorks).

H1299 (p53-null) = experiment: Three day cell growth inhibition assay, H1299; type: cell-based, human; details: FIG. 2
H460 (p53-WT) = experiment: Three day cell growth inhibition assay, H460; type: cell-based, human; details: H460 (p53 wildtype), FIG. 2
[3] = Mouse survival, daily IP administration (Example 13); type: in vivo; details: mice, ZN1 5.6 mg/kg vs ZMC1 5 mg/kg IP daily, FIG. 5

Molecule | transport of Zn2+ into liposomes (rate of RZ-3 fluorescence increase) [1] | increase of intracellular [Zn2+]free (FZ3 fluorescence) [2] | cell growth inhibition (cell killing) (H1299 (p53-null)) | Zn2+ export from liposomes (RZ-3 fluorescence) ([1]; excess EDTA outside the liposomes) | cell growth inhibition (cell killing) (H460 (p53-WT)) | t1/2 of intracellular [Zn2+]free increase ([2]; HEK293, ZMC1 and ZnCl2, EBSS/H (−)Ca/Mg, mean±SD, n=4) [min] | potency in vivo (survival) relative to monomer ZMC1 [3]
O=C(O)CN(CC(=O)O)CC(=O)O [NTA, reference compound] | did not | did not |  |  |  |  | 
C/C(=N\NC(=S)N1CCC1)c1ccccn1 [Compound 6, (E)-N′-(1-(pyridin-2-yl)ethylidene)azetidine-1-carbothiohydrazide] | dose-dependent increase | increased intracellular [Zn^2+]free | undisturbed | time dependent decrease in RZ-3 fluorescence | undisturbed | 2.07 ± 0.333 | 
C/C(=N\NC(=O)N1CCC1)c1ccccn1 [Compound 10, (E)-N′-(1-(pyridin-2-yl)ethylidene)azetidine-1-carbohydrazide] | shuttled Zn^2+ into the liposomes | did not |  |  |  |  | 
[Zn(ZMC1)2] [Compound 12] |  |  |  |  |  |  | greater potency
